In patent publication US5585385A, “Heterocyclic compounds, their production and use as tachykinin reactor antagonists” (Takeda Chemical Industries, Ltd., priority 1993, dated 1996):

target: T1, substance P receptor (Homo sapiens, UniProt P25103); assay: Radioligand receptor binding inhibitory activity using receptor from human lymphoblast cells (IM-9), 125I-BHSP; settings: human IM-9 cell receptor, 25° C., 30 minutes, pH 7.4, n=1
T1 construct: The receptor was prepared from human lymphoblast cells (IM-9); endogenous in cells; host or cells: IM-9 human lymphoblast cells (crude membrane preparation)
Description: Radioligand receptor binding inhibitory activity
Binding inhibitory activity using receptor from human lymphoblast cells (IM-9)
The method of A. Margaret "Molecular Pharmacology 42, p.458 (1992)" was modified and used. The receptor was prepared from human lymphoblast cells (IM-9). IM-9 cells (2×10^5 cells/ml) were inoculated and incubated for 3 days (one liter), which was then subjected to centrifuge for 5 minutes at 500×g to obtain cell pellets. The pellets were washed once with phosphate buffer (Flow Laboratories, CAT. No. 28-103-05), which were then crushed using Polytron.homogenizer "Kinematika, Germany" in 30 ml of 50 mM Tris-HCl buffer (pH 7.4) containing 120 mM sodium chloride, 5 mM potassium chloride, 2 μg/ml chymostatin, 40 μg/ml bacitracin, 5 μg/ml phosphoramidon, 0.5 mM phenylmethyl sulfonyl fluoride, 1 mM ethylenediamine tetra-acetic acid, which was subjected to centrifuge at 40,000×g for 20 minutes. The residue was washed twice with 30 ml of the above-mentioned buffer, which was then preserved frozen (-80° C.) as a specimen of the receptor.
The specimen was suspended in a reaction buffer (50 mM Tri-HCl buffer (pH 7.4), 0.02% bovine serum albumin, 1 mM phenylmethylsulfonyl fluoride, 2 μg/chymostatin, 40 μg/ml bacitracin, 3 mM manganese chloride) and 100 ul portion was the suspension was used in the reaction. After addition of the sample and ^125 I-BHSP (0.46 KBq), the reaction was allowed to proceed in 0.2 ml of reaction buffer at 25° C. for 30 minutes. The amount of nonspecific binding was determined by adding substance P at a final concentration of 2×10^-6 M. After the reaction, using a cell harvester (290 PHD, Cambridge Technology, Inc, U.S.A.), rapid filtration was carried out through a glass filter (GF/B, Whatman, U.S.A.) to stop the reaction. After washing three times with 250 ul of 50 mM of Tris-HCl buffer (pH 7.4) containing 0.02% bovine serum albumin, the radioactivity remaining on the filter was determined with a gamma counter. Before use, the filter was immersed in 0.1% polyethyleneimine for 24 hours and air-dried. […] (Radioligand means substance P labelled with ^125 I.) The number of this experiment is one.

T1 sequence (P25103 whole entry): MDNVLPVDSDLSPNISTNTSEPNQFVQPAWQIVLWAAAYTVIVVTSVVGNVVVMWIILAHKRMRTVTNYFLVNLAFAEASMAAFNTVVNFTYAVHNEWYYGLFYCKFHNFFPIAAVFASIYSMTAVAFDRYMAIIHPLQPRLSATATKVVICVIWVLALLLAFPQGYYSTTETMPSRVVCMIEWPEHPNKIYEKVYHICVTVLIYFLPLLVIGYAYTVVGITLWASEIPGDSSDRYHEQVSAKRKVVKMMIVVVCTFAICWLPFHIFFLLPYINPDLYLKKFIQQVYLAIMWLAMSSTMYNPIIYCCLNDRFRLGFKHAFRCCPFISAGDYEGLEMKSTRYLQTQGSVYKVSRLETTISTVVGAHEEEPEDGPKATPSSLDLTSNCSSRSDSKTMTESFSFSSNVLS

Row | Compound | IC50
1 | CN(Cc1cc(C(F)(F)F)cc(C(F)(F)F)c1)C(=O)c1cnc2ccccc2c1-c1ccccn1 [Example 12, N-[3,5-Bis(trifluoromethyl)benzyl]-N-methyl-4-(2-pyridyl)-3-quinolinecarboxamide] | 2.8 nM
2 | CN(Cc1cc(C(F)(F)F)cc(C(F)(F)F)c1)C(=O)c1c(-c2ccc(F)cc2)c2c[n+](C)ccc2c(=O)n1C [Example 33, 3-[N-[3,5-Bis(trifluoromethyl)benzyl]-N-methylaminocarbonyl]-4-(4-fluorophenyl)-1,2-dihydro-2,6-dimethyl-1-oxopyrido[4,3-c]pyridinium iodide] | 16 nM
3 | CN(Cc1cc(C(F)(F)F)cc(C(F)(F)F)c1)C(=O)c1c(-c2ccc(F)cc2)c2c(c(=O)n1C)CCCN2C [Example 28, N-[3,5-Bis(trifluoromethyl)benzyl]-8-(4-fluorophenyl)-1,2,3,4,5,6-hexahydro-N, 1,6-trimethyl-5-oxo-7-pyrido [4,3-b]pyridinecarboxamide] | 5 nM
4 | CN(Cc1cc(C(F)(F)F)cc(C(F)(F)F)c1)C(=O)c1c(-c2ccc(F)cc2)c2cc(Cl)cnc2c(=O)n1C [Example 6, N-[3,5-Bis(trifluoromethyl)benzyl]-3-chloro-5-(4-fluorophenyl)-7,8-dihydro-N, 7-dimethyl-8-oxo-6-pyrido[3,4-b]pyridinecarboxamide] | 1.1 nM
5 | CN1CCc2c(c(-c3ccc(F)cc3)c(C(=O)N(C)Cc3cc(C(F)(F)F)cc(C(F)(F)F)c3)n(C)c2=O)C1 [Example 34, N-[3,5-Bis(trifluoromethyl)benzyl]-4-(4-fluorophenyl)-1,2,5,6,7,8-hexahydro-N,2,6-trimethyl-1-oxo-3-pyrido [4,3-c]pyridinecarboxamide] | 2.1 nM
6 | Cc1ccccc1-c1c(C(=O)N(C)Cc2cc(C(F)(F)F)cc(C(F)(F)F)c2)n(C)c(=O)c2cccnc12 [Example 10, N-[3,5-Bis(trifluoromethyl)benzyl]-5,6-dihydro-N, 6-dimethyl-8-(2-methylphenyl)-5-oxo-7-pyrido[4,3-b]pyridinecarboxamide] | 33 nM
7 | COc1ccccc1CN(C)C(=O)c1c(-c2ccc(F)cc2)c2cccnc2c(=O)n1C [Example 4, 5-(4-Fluorophenyl)-7,8-dihydro-N-(2-methoxybenzyl)-N,7-dimethyl-8-oxo-6-pyrido[3,4-b]pyridinecarboxamide] | 2.5 nM
8 | CN(Cc1cc(C(F)(F)F)cc(C(F)(F)F)c1)C(=O)c1c(-c2ccccc2)c2ccncc2c(=O)n1C [Example 37, N-[3,5-Bis(trifluoromethyl)benzyl]-1,2-dihydro-N, 2-dimethyl-1-oxo-4-phenyl-3-pyrido[3,4-c]pyridinecarboxamide] | 0.62 nM
9 | CN(Cc1cc(C(F)(F)F)cc(C(F)(F)F)c1)C(=O)c1c(-c2ccccc2)c2c(c(=O)n1C)CCCN2 [Example 51] | 2.1 nM
10 | CN(Cc1cc(C(F)(F)F)cc(C(F)(F)F)c1)C(=O)c1c(-c2cccs2)c2ccccc2c(=O)n1C [Example 21, N[3,5-Bis(trifluoromethyl)benzyl]-1,2-dihydro-N, 2-dimethyl-1-oxo-4-(2-thienyl)-3-isoquinolinecarboxamide] | 2.5 nM
11 | CN(Cc1cc(C(F)(F)F)cc(C(F)(F)F)c1)C(=O)c1c(-c2ccc(F)cc2)c2ncsc2c(=O)n1C [Example 40, N-[3,5-Bis(trifluoromethyl)benzyl]-7-(4-fluorophenyl)-4,5-dihydro-N, 5-dimethyl-4-oxo-6-thiazolo[5,4-c]pyridinecarboxamide] | 1.8 nM
12 | CN(Cc1cc(C(F)(F)F)cc(C(F)(F)F)c1)C(=O)c1c(-c2ccc(F)cc2)c2cnccc2c(=O)n1C [Example 9, N-[3,5-Bis(trifluoromethyl)benzyl]-4-(4-fluorophenyl)-1,2-dihydro-N, 2-dimethyl-1-oxo-3-pyrido[4,3-c]pyridine carboxamide] | 1.2 nM
13 | CN(Cc1cc(C(F)(F)F)cc(C(F)(F)F)c1)C(=O)c1c(-c2ccccc2)c2c(c(=O)n1C)NCCC2 [Example 55, N-[3,5-Bis(trifluoromethyl)benzyl]-1,2,3,4,7,8-hexahydro-5-phenyl-N,7-dimethyl-8-oxo-6-pyrido[3,4-b]pyridinecarboxamide] | 0.7 nM
14 | CN(Cc1cc(C(F)(F)F)cc(C(F)(F)F)c1)C(=O)c1c(-c2ccccc2)c2scnc2c(=O)n1C [Example 43, N-[3,5-Bis(trifluoromethyl)benzyl]-4,5-dihydro-N, 5-dimethyl-4-oxo-7-phenyl-6-thiazolo[4,5-c]pyridinecarboxamide] | 1 nM
15 | COc1ccccc1CNC(=O)c1c(-c2ccc(F)cc2)c2cccnc2c(=O)n1C [Example 3, 5-(4-Fluorophenyl)-7,8-dihydro-N-(2-methoxybenzyl)-7-methyl-8-oxo-6-pyrido[3,4-b]pyridinecarboxamide] | 14 nM
16 | CN(Cc1cc(C(F)(F)F)cc(C(F)(F)F)c1)C(=O)c1c(-c2ccc(F)cc2)c2ncccc2c(=O)n1C [Example 19, N-[3,5-Bis(trifluoromethyl)benzyl]-8-(4-fluorophenyl)-5,6-dihydro-N, 6-dimethyl-5-oxo-7-pyrido[4,3-b]pyridine carboxamide] | 0.94 nM
17 | CN(Cc1cc(C(F)(F)F)cc(C(F)(F)F)c1)C(=O)c1c(-c2ccc(F)cc2)c2ccc[n+](C)c2c(=O)n1C [Example 29, 6-[N-[3,5-Bis(trifluoromethyl)benzyl]-N-methylaminocarbonyl]-5-(4-fluorophenyl)-7,8-dihydro-1,7-dimethyl-8-oxopyrido[3,4-b]pyridinium iodide] | 0.6 nM
18 | COc1ccccc1CN(C)C(=O)c1c(-c2ccccc2)c2ccsc2c(=O)n1C [Example 46, 6,7-Dihydro-N-(2-methoxybenzyl)-N, 6-dimethyl-7-oxo-4-phenyl-5-thieno[2,3-c]pyridinecarboxamide] | 26 nM

Compounds with a lower IC50, results first:

Row | IC50 | Compound
19 | 0.33 nM | CN(Cc1cc(C(F)(F)F)cc(C(F)(F)F)c1)C(=O)c1c(-c2ccc(F)cc2)c2cc[n+](C)cc2c(=O)n1C [Example 31, 3-[N-[3,5-Bis(trifluoromethyl)benzyl]-N-methylaminocarbonyl]-4-(4-fluorophenyl)-1,2-dihydro-2,7-dimethyl-1-oxopyrido[3,4-c]pyridinium iodide]
20 | 0.048 nM | CN1CCc2c(-c3ccc(F)cc3)c(C(=O)N(C)Cc3cc(C(F)(F)F)cc(C(F)(F)F)c3)n(C)c(=O)c2C1 [Example 32, N-[3,5-Bis(trifluoromethyl)benzyl]-4-(4-fluorophenyl)-1,2,5,6,7,8-hexahydro-N,2,7-trimethyl-1-oxo-3-pyrido[3,4-c]pyridinecarboxamide]
21 | 0.2 nM | CN(Cc1cc(C(F)(F)F)cc(C(F)(F)F)c1)C(=O)c1cnc2sccc2c1-c1ccc(F)cc1 [Example 24, N[3,5-Bis(trifluoromethyl)benzyl]-4-(4-fluorophenyl)-N-methyl-5-thieno[2,3-b]pyridinecarboxamide]
22 | 0.36 nM | CN(Cc1cc(C(F)(F)F)cc(C(F)(F)F)c1)C(=O)c1c(-c2ccc(F)cc2)c2cscc2c(=O)n1C [Example 18, N-[3,5-Bis(trifluoromethyl)benzyl]-7-(4-fluorophenyl)-4,5-dihydro-N, 5-dimethyl-4-oxo-6-thieno[3,4-c]pyridine carboxamide]
23 | 0.2 nM | Cc1ccccc1-c1c(C(=O)N(C)Cc2cc(C(F)(F)F)cc(C(F)(F)F)c2)n(C)c(=O)c2sccc12 [Example 47, N-[3,5-Bis(trifluoromethyl)benzyl]-6,7-dihydro-N, 6-dimethyl-4-(2-methylphenyl)-7-oxo-5-thieno[2,3-c]pyridinecarboxamide]
24 | 0.35 nM | CN(Cc1cc(C(F)(F)F)cc(C(F)(F)F)c1)C(=O)c1c(-c2ccc(F)cc2)c2ccc(=O)n(C)c2c(=O)n1C [Example 35, N-[3,5-Bis(trifluoromethyl)benzyl]-5-(4-fluorophenyl)-1,2,7,8-tetrahydro-N,1,7-trimethyl-2,8-dioxo-6-pyrido [3,4-b]pyridinecarboxamide]
25 | 0.2 nM | N-[3,5-Bis(trifluoromethyl)benzyl]-5-(chloro-2-methylphenyl)-7,8-dihydro-N,7-dimethyl-8-oxo-6-pyrido[3,4-b]pyridinecarboxamide and its isomer [Example 11]
26 | 0.24 nM | CN(Cc1cc(C(F)(F)F)cc(C(F)(F)F)c1)C(=O)c1c(-c2ccccc2)c2ccsc2c(=O)n1C [Example 44, N-[3,5-bis(trifluoromethyl)benzyl]-6,7-dihydro-N, 6-dimethyl-7-oxo-4-phenyl-5-thieno[2,3-c]pyridinecarboxamide]
27 | 0.1 nM | CN(Cc1cc(C(F)(F)F)cc(C(F)(F)F)c1)C(=O)c1c(-c2ccc(F)cc2)c2c(c(=O)n1C)N(C)CCC2 [Example 30, N-[3,5-Bis(trifluoromethyl)benzyl]-5-(4-fluorophenyl)-1,2,3,4,7,8-hexahydro-N, 1,7-trimethyl-8-oxo-6-pyrido [3,4-b]pyridinecarboxamide]
